Biological target: Melatonin receptor (Gallus gallus, UniProt P49288+P51050+P49285)
Experiment: Binding affinity against chicken brain melatonin receptors using 2-[125I]iodomelatonin as radioligand

Row | SMILES | Log Ki
1 | COc1cc2ccccc2c2c1CC(NC(C)=O)CC2 (stereo not drawn) | -6.67
2 | COc1cc2c(CCNC(=O)C3CC3)c[nH]c2cc1F | -8.6
3 | CC(=O)NCCc1cccc2ccc(O)cc12 | -7.52
4 | COc1ccc2cccc(CCNC=O)c2c1 | -8.03
5 | CCCC(=O)NCCc1c[nH]c2cc(F)c(OC)cc12 | -9.85
6 | CCOc1ccc2ccccc2c1CCNC(=O)CC | -8.97
7 | COc1ccc(-c2ccccc2)cc1CCNC(C)=O | -6.54
8 | CCOc1ccc2ccccc2c1CCNC(C)=O | -8.45
9 | COc1ccc2cccc3c2c1CC(NC(C)=O)C3 (stereo not drawn) | -7.46
10 | CCCNC(=O)NCCc1c[nH]c2ccc(OC)cc12 | -8.17
11 | COc1ccc2cccc(CONC(C)=O)c2c1 | -8.77
12 | COc1ccc(OC)c(CCNC(=O)C(F)(F)F)c1 | -6.94
13 | COc1ccc2ccccc2c1CONC(C)=O | -7.25
14 | CCC(=O)NCCc1c(OC)ccc2cc(C)ccc12 | -7.19
15 | COc1ccc(C)cc1CCNC(=O)C(F)(F)F | -6.64
16 | COc1cccc(CCNC(=O)C(F)(F)F)c1 | -5.72
17 | CCCC(=O)NCCc1cccc2ccc(OC)cc12 | -10.53

Row | SMILES | Log Ki
18 | CCC(=O)NCCc1c(OC)ccc2ccc(OC)cc12 | -10.14
19 | COc1ccc(C)cc1CCNC(C)=O | -6.71
20 | CCC(=O)NCCc1cc(Br)ccc1OC | -8.94
21 | COc1ccc2cccc(CCNC(=O)CBr)c2c1 | -9.92
22 | CC(=O)NCCc1c[nH]c2ccccc12 | -6.31
23 | CCCCC(=O)NCCc1cccc2ccc(OC)cc12 | -7.35
24 | CCC(=O)NCCc1cc(OC)cc2ccc(OC)cc12 | -7.92
25 | CCCCC(=O)NCCc1cccc2ccccc12 | -6.62
26 | COc1ccc2[nH]cc(CCNC(=O)C3CC3)c2c1 | -8.6
27 | CCC(=O)NCCc1cccc2ccc(OC)cc12 | -9.74
28 | COc1ccc2cccc(CCNC(=O)C3CC3)c2c1 | -7.71
29 | CCOc1ccc2ccccc2c1CCNC(=O)C(F)(F)F | -8.23
30 | COc1ccc2ccc(OC)c(CCNC(C)=O)c2c1 | -9.62
31 | COc1ccc2ccc(OC)c(CCNC(=O)C(F)(F)F)c2c1 | -9.41
32 | COc1ccc2ccccc2c1CCNC(=O)C(F)(F)F | -9.26
33 | COc1ccc(OC)c(CCNC(C)=O)c1 | -7.15
